Here are results for one compound from PMC7481482, “Development of Anthraquinone Derivatives as Ectonucleoside Triphosphate Diphosphohydrolase (NTPDase) Inhibitors With Selectivity for NTPDase2 and NTPDase3” (Frontiers in Pharmacology, 2020).

For one assay, the system named is rat NTPDase2. As to conditions: rat enzyme; ref Baqi et al., 2009b; cited from earlier work.
Another assay relates to rat CD73. On the set-up: method as in Baqi et al., 2010. As to conditions: ref Baqi et al., 2010; cited from earlier work.
The target in a further assay is T1, human NTPDase1 (Homo sapiens, UniProt P49961).
T1 construct: expressed in transfected cells; host or cells: COS-7 cells (membrane preparation)
T1 sequence (P49961 1-510): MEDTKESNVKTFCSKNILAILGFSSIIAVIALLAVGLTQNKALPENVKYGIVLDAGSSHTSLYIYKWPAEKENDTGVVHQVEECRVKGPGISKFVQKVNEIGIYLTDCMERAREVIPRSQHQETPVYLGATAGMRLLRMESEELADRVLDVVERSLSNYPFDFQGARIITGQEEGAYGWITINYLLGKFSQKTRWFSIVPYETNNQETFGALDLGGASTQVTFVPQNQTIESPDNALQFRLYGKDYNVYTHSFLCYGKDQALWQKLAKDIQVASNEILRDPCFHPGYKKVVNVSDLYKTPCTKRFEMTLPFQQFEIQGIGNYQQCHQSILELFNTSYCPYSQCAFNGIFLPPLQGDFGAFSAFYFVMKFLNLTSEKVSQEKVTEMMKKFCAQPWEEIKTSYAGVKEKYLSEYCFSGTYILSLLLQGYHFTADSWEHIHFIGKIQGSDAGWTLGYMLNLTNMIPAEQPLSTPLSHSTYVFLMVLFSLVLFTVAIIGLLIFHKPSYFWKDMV
The assay is described as follows: Malachite green assay, human NTPDase1. It counts as biochemical. As to conditions: 2 μM compound; 50 µM ATP; COS-7 membrane preparation; read-out: % inhibition at 2 μM concentration, NTPDase1. Summed up:
(§1)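 COS-7 membranes expressing each NTPDase were preincubated with compound for 5 min at 37 °C, pH 7.4 HEPES buffer with 2 mM CaCl2/1 mM MgCl2. ATP was 50 µM for NTPDase1 and 100 µM for -2, -3, -8; reaction ran 15 min at 37 °C. Released phosphate read by malachite green at 600 nm; screen at 2 µM, IC50 over 0.03–30 µM in 2% DMSO.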

Another assay relates to rat NTPDase1. As to conditions: rat enzyme; ref Baqi et al., 2009b; cited from earlier work.
The target in another assay is T2, human NTPDase2 (Homo sapiens, UniProt Q9Y5L3).
T2 construct: expressed in transfected cells; host or cells: COS-7 cells (membrane preparation)
T2 sequence (Q9Y5L3 1-495): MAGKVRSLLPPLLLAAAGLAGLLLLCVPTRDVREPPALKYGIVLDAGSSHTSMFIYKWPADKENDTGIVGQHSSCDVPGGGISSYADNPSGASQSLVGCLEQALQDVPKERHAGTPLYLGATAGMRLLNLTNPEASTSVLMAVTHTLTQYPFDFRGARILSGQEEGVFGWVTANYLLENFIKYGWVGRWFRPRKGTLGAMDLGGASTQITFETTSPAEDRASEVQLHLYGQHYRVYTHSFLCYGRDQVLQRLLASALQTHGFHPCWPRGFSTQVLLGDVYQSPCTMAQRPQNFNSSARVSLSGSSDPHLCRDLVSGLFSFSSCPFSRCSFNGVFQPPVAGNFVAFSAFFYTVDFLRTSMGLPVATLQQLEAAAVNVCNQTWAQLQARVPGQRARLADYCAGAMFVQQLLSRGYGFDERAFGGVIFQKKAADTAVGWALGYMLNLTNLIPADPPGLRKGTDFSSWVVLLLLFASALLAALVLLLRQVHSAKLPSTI
Briefly: Malachite green assay, human NTPDase2. It counts as biochemical. As to conditions: 2 μM compound; 100 µM ATP; COS-7 membrane preparation; read-out: % inhibition at 2 μM concentration, NTPDase2. In outline:
as §1

The subject of another assay is rat NTPDase3. The conditions noted are these: rat enzyme; ref Baqi et al., 2009b; cited from earlier work.

Bounds are passed on as bounds.

Turning to `Nc1c(S(=O)(=O)O)cc(Nc2cccc3ccccc23)c2c1C(=O)c1ccccc1C2=O` [Compound 15], the half-maximal inhibitory concentration (IC50) (commonly the midpoint of a concentration-inhibition curve) with rat NTPDase2 was above 100000 nM; in the assay on rat CD73, 530 nM; in the assay with rat NTPDase1, above 100000 nM; in the assay on rat NTPDase3 it was 1500 nM. Also, the results for the inhibition at 2 µM on human NTPDase1 and on human NTPDase2 were -19% and 31%, respectively.
